In the Deep4Chem optical property database one finds emission maximum data, which are given here for 36 molecules.

Where “and” joins values, the source holds several entries; their conditions need not be identical. Equal entries are not always repeated.

One data set can be described thus: solvent given as SMILES. Particulars: in CN(C)C=O.
Consider `NCCCCCCCCCCCCN1C(=O)c2ccc3c4ccc5c6c(ccc(c7ccc(c2c37)C1=O)c64)C(=O)NC5=O`, for which the emission maximum was found to be 534 nm.

In the case of `CSc1sc(C(N)=O)c2nnn(C)c(=O)c12`, the emission maximum stood at 514 nm.

In turn, `NCCCCCCCCCCCCN1C(=O)c2ccc3c4ccc5c6c(ccc(c7ccc(c2c37)C1=O)c64)C(=O)N(c1ccc(O)cc1)C5=O` displayed an emission maximum of 534 nm.

`CN(C)c1ccc(-c2cc3c(ccc4c([N+](=O)[O-])cccc43)c(=O)o2)cc1` displayed an emission maximum of 546 nm.

The same data set, now with this note: in CO.
Turning to `O=c1oc2ccc3ccccc3c2nc1-c1ccccc1`, the emission maximum amounted to 476 nm.

In turn, `N#C[Se]CCCCCOc1ccc2ccc(=O)oc2c1` showed an emission maximum of 391 nm.

The molecule `O=C1C2=C(O[B-](F)(F)[n+]3c2ccc2ccccc23)c2ccc(N3CCOCC3)c3cccc1c23` came in with an emission maximum of 558 nm.

In the case of `COc1ccc2cc(-c3ccc(C(F)(F)F)cc3)oc(=O)c2c1`, the emission maximum was determined as 413 nm.

On to `CCN(CC)c1ccc2cc(-c3cc(SC)c(C#N)c(=O)o3)c(=O)oc2c1`, for which the emission maximum was determined as 582 nm.

Take `CC1(C)C2=C(c3ccc(N(c4ccccc4)c4ccccc4)cc31)P(=O)(c1ccccc1)c1ccccc12` (configuration not stated): the emission maximum is 598 nm.

On to `CSc1sc(C(N)=O)c2nnn(C)c(=O)c12`, for which the emission maximum worked out at 521 nm.

Take `Cc1ccc(C2=C3C=C(I)C=[N+]3[B-](F)(F)n3c2cc(I)c3I)cc1`: the emission maximum worked out at 580 nm.

As to `CN(C)c1ccc(-c2cc3c(ccc4c([N+](=O)[O-])cccc43)c(=O)o2)cc1`, the emission maximum was 548 nm.

Still in this data set, the particulars now being: in CS(C)=O.
Regarding `CCCCCCCCC1(CCCCCCCC)c2cc(-c3ccc([N+](=O)[O-])cc3)ccc2-c2ccc(-c3ccc([N+](=O)[O-])cc3)cc21`, the emission maximum is 589 nm.

`CCN(CC)c1ccc2cc(-c3cc(SC)c(C#N)c(=O)o3)c(=O)oc2c1` had an emission maximum of 593 nm.

In turn, `c1ccc2sc(-c3ccc(-c4nnc(-c5ccc(-c6nnc(-c7ccc(-c8cc9ccccc9s8)s7)o6)cc5)o4)s3)cc2c1` yielded an emission maximum of 423 nm.

`CSc1sc(C(N)=O)c2nnn(C)c(=O)c12` gave an emission maximum of 527 nm.

Staying with this data set, now noted: in Cc1ccccc1.
For `CC(C)(C)c1cc(C(C)(C)C)c(-c2nnc(-c3ccc(-n4c5ccccc5c5ccccc54)cc3)o2)c(C(C)(C)C)c1`, the emission maximum was determined as 376 nm.

For the molecule `Cc1cc(-n2c3ccccc3c3cc(C#N)ccc32)ccc1-c1ccc(S(=O)(=O)c2ccccc2)cc1C`, the emission maximum is 352 nm.

Regarding `CCN(CC)c1ccc2cc(-c3cc(SC)c(C#N)c(=O)o3)c(=O)oc2c1`, the emission maximum worked out at 533 nm.

Molecule `N#C/C(=N/Nc1ccc(C#N)cc1)c1nc(-c2ccccc2)cs1` showed an emission maximum of 490 nm.

`c1ccc2sc(-c3ccc(-c4nnc(-c5ccc(-c6nnc(-c7ccc(-c8cc9ccccc9s8)s7)o6)cc5)o4)s3)cc2c1` came in with an emission maximum of 399 nm.

With `CC1(C)C2=C(c3ccc(N(c4ccccc4)c4ccccc4)cc31)P(=O)(c1ccccc1)c1ccccc12` (configuration not stated), the emission maximum is 511 nm.

In turn, `Cc1ccc([B-]2(c3ccc(C)cc3)n3nc(C(F)(F)F)cc3-c3c4ccccc4cc[n+]32)cc1` registered an emission maximum of 407 nm.

For the molecule `O=S(=O)(c1ccc(N(c2ccccc2)c2ccccc2)cc1)c1ccc(S(=O)(=O)c2ccc(N(c3ccccc3)c3ccccc3)cc2)cc1`, the emission maximum is 451 nm.

Regarding `CCCCOC(=O)c1cc(Oc2ccc(OC)cc2)c2c3c(Cl)cc4c5c(cc(Cl)c(c6c(Oc7ccc(OC)cc7)cc(C(=O)OCCCC)c1c26)c53)C(=O)N(c1c(C(C)C)cccc1C(C)C)C4=O`, the emission maximum was found to be 599 nm.

`COc1ccc(N(c2ccccc2)c2cc3ccc4cc(N(c5ccccc5)c5ccc(OC)cc5)cc5ccc(c2)c3c45)cc1` showed an emission maximum of 482 nm.

Molecule `Cc1ccccc1N(c1ccc(C(C)(C)C)cc1)c1ccc2ccc3c(N(c4ccc(C(C)(C)C)cc4)c4ccccc4C)ccc4ccc1c2c43` gave an emission maximum of 462 nm.

With `COc1ccc(-c2n[n+]3c(s2)N=C(c2ccccc2)O[B-]3(F)F)cc1`, the emission maximum was 436 nm.

The data set is the same for the next values; noted with them: in ClC(Cl)Cl.
As to `CCCCCCCCC1(CCCCCCCC)c2cc(-c3ccc([N+](=O)[O-])cc3)ccc2-c2ccc(-c3ccc([N+](=O)[O-])cc3)cc21`, the emission maximum worked out at 538 nm.

Turning to `COc1ccc2cc(-c3ccc(C(F)(F)F)cc3)oc(=O)c2c1`, the emission maximum is 409 nm.

`CCN(CC)c1ccc2cc(-c3cc(SC)c(C#N)c(=O)o3)c(=O)oc2c1` had an emission maximum of 547 nm.

Turning to `c1ccc2sc(-c3ccc(-c4nnc(-c5ccc(-c6nnc(-c7ccc(-c8cc9ccccc9s8)s7)o6)cc5)o4)s3)cc2c1`, the emission maximum is listed as 399 nm.

For the molecule `CN1C(=CC2=C([O-])C(=CC3=[N+](C)c4ccccc4C3(C)C)C2=C2C(=O)c3ccccc3C2=O)C(C)(C)c2ccccc21`, the emission maximum was 699 nm.

For the molecule `COc1ccc(N(c2ccc(OC)cc2)c2ccc(-c3ccc(C=C(C#N)C#N)cc3)cc2)cc1`, the emission maximum worked out at 696 nm.

In turn, `c1cc2ccc3sc4ccc5cccc6c(c1)c2c3c4c56` had an emission maximum of 418 nm.

With `CCOC(=O)c1ccc(/C=C/C2=[N+]3C(=C(c4ccccc4)c4ccc(/C=C/c5ccc(C(=O)OCC)o5)n4[B-]3(F)F)C=C2)o1`, the emission maximum turned out to be 681 nm.

`N#Cc1nc(N(Cc2ccccc2F)Cc2ccccc2F)c(C#N)nc1N(Cc1ccccc1F)Cc1ccccc1F` showed an emission maximum of 570 nm.

For the molecule `CN(C)c1ccc(-c2cc3c(ccc4c([N+](=O)[O-])cccc43)c(=O)o2)cc1`, the emission maximum turned out to be 634 nm.

The molecule `CC1=CC(C)=[N+]2C1=C(c1ccc(I)cc1)c1c(C)cc(C)n1[B-]2(Oc1ccccc1)Oc1ccccc1` yielded an emission maximum of 517.5 nm.

The same data set, now with this note: in ClCCl.
The molecule `Cc1cc(-n2c3ccccc3c3cc(C#N)ccc32)ccc1-c1ccc(S(=O)(=O)c2ccccc2)cc1C` showed an emission maximum of 369.19 nm.

For the molecule `O=C1C2=C(O[B-](F)(F)[n+]3c2ccc2ccccc23)c2ccc(N3CCOCC3)c3cccc1c23`, the emission maximum was determined as 544 nm.

For `COc1ccc(-c2c3ccc(=[N+]4CCCCC4)cc-3oc3cc(N4CCCCC4)ccc23)cc1`, the emission maximum came out at 582 nm.

Turning to `C1=Cc2nc1c(-c1ccccc1)c1ccc([nH]1)c(-c1ccccc1)c1cc(c(-c3ccccc3)c3ccc([nH]3)c2-c2ccccc2)N=C1`, the emission maximum came out at 744 nm.

Consider `CCN(CC)c1ccc2cc(-c3cc(SC)c(C#N)c(=O)o3)c(=O)oc2c1`, for which the emission maximum is 560 nm.

`N#C/C(=N/Nc1ccc(C#N)cc1)c1nc(-c2ccccc2)cs1` displayed an emission maximum of 492 nm.

The molecule `Cc1ccc([B-]2(c3ccc(C)cc3)n3nc(C(F)(F)F)cc3-c3c4ccccc4cc[n+]32)cc1` registered an emission maximum of 407 nm.

`CCCCC1=C(CCCC)c2cccc3c2c(cc2nc4ccccc4nc23)O1` returned an emission maximum of 567 nm.

With `CC1=CC(C)=[N+]2C1=Cc1c3ccccc3c(-c3[nH]c(C)cc3C)n1[B-]2(F)F`, the emission maximum stood at 631 nm.

As to `Cn1nc(-c2ccc(C(F)(F)F)cc2)cc1-c1ccccc1`, the emission maximum was found to be 341 nm.

The molecule `c1ccc2c(C3=C(c4cccc5ccccc45)c4cccc5c4c(cc4nc6ccccc6nc45)O3)cccc2c1` displayed an emission maximum of 538 nm.

`CCOC(=O)c1c(-c2cc3ccccc3oc2=O)nn(-c2ccc(OC)cc2)c1C(=O)OCC` gave an emission maximum of 457 nm.

With `CC(C)(C)c1cc(-c2ccc3c(-c4cc(C(C)(C)C)cc(C(C)(C)C)c4)cc4c5cc(-c6cc(C(C)(C)C)cc(C(C)(C)C)c6)ccc5c(-c5cc(C(C)(C)C)cc(C(C)(C)C)c5)cc4c3c2)cc(C(C)(C)C)c1`, the emission maximum is 401 nm.

The same data set, now with this note: in O.
In the case of `N#C[Se]CCCCCOc1ccc2ccc(=O)oc2c1`, the emission maximum is listed as 397 nm.

The data set is the same for the next values; noted with them: in OCC(F)(F)F.
`Cc1ccc(C2=C3C=C(I)C=[N+]3[B-](F)(F)n3c2cc(I)c3I)cc1` showed an emission maximum of 576 nm.

The data set is the same for the next values; noted with them: in OCCO.
For the molecule `N#C[Se]CCCCCOc1ccc2ccc(=O)oc2c1`, the emission maximum amounted to 392 nm.

The same data set, now with this note: in c1ccccc1.
On to `O=c1oc2ccc3ccccc3c2nc1-c1ccccc1`, for which the emission maximum is 467 nm and 460 nm.
